Laboratory results published in patent publication US20060223729A1, “Photodynamic inactivation of bacterial spores” (priority 2003, published 2006).

Experiments:
B. thuringiensis spores = experiment: Photodynamic inactivation (PDI) of B. thuringiensis spores, colony-forming units; type: cell-based, B. thuringiensis (ATCC 33740); settings: 100 μM, 1 hour, 100 mW/cm^2 appropriate wavelength light, 0 to 32 J/cm^2 (FIG. 9, FIG. 10)
Description: (§1) The bacteria studied in the following examples were B. atrophaeus (ATCC 9372), B. cereus (ATCC14579), B. thuringiensis (ATCC 33740) and B. subtilis (ATCC 6051). Growing bacterial cells were cultivated in brain-heart infusion (BHI) broth at 37° C. Aliquots of the suspension (10^8/mL) were stored at −80° C. and then used for the experiments.
(§2) For initial experiments spores of B. atrophaeus and B. cereus were purchased from SGM Biotech, Inc (Bozeman, Mont., USA). For subsequent experiments spores of all species were prepared in the laboratory using sporulation broth for B. atrophaeus and B. subtilis, or sporulation agar (Caipo et al., 2002; Nicholson & Setlow, 1990) for B. cereus and B. thuringiensis. The sporulation medium consisted of 16.0 g nutrient broth (Difco), 2.0 g KCl, 0.5 g MgSO4; 17 g of agar. The pH of the medium was adjusted to 7, then autoclaved and cooled. After cooling 1 ml of 1M […], 1 ml of 0.1 M MnCl2.4H2O, 1 ml of 1 mM FeSO4 and 2 ml 50% glucose were added. For spore purification the mixture of spores and cells was centrifuged at 1300 g for 20 min, washed with SX volume 1 M KCl/0.5 M NaCl, rinsed with sterile deionized water, then washed with 1 M NaCl, and rinsed with sterile deionized water again. Lysozyme (50 μg/mL) was added in the presence of buffer (5× volume Tris Cl, 0.05 M, pH 7 2), and incubated with constant stirring at 4° C. overnight. Lysozyme was removed by centrifuging 8 times (at 1300 g) and washing with sterile deionized water. Spores were frozen with 10% glycerol and stored until use. To avoid germination spores were used immediately after defrosting.
(§3) As photosensitizers Rose Bengal, Toluidine Blue O (TBO), Methylene Blue, New Methylene Blue N zinc chloride double salt (NMB), 1,9-Dimethylmethylene Blue Chloride (Sigma-Aldrich—DMMB), Azure A, Azure B, Azure C, methylene violet 3RAX, safranine O, and malachite green, were used. Stock solutions were prepared in water and stored at 4° C. in the dark before use. The concentrations of stock solution were 2 mM.
(§4) When Rose Bengal was used, irradiation was performed with an argon laser at 514 nm. A diode laser with wavelength 670 nm was used for experiments with Methylene Blue and 1,9-Dimethylmethylene Blue Chloride. Diode laser with wavelength 635 nm was used for Toluidine Blue O and New Methylene Blue N. For other dyes either a turnable argon ion pumped dye laser or a 514 nm argon ion laser was used.
(§5) Suspensions of spores or bacteria (10^8/mL, 10^7/mL, 10^6/mL) were incubated with photosensitizers in the dark at room temperature. Incubation time was ranged from 1 min to 24 h and the photosensitizer concentrations varied form 10 μM to 1 mM. The cell suspensions were centrifuged at 20800 g and then washed several times with sterile PBS. The bacterial suspensions were placed on two well (concavities hanging drop) slides (Fisher Scientific) and irradiated with appropriate laser at room temperature. Fluences ranged from 0 to 300 J/cm^2. Fluence rates varied from 0 to 500 mW/cm^2. During irradiation aliquots of 20 μL were taken to determine the colony-forming units. The contents of the wells were mixed before sampling. The aliquots were serially diluted 10-fold in PBS to give dilutions of 10^−1-10^−6 times the original concentrations and were streaked horizontally on square BHI agar plates as described by (Jett et al., 1997). Plates were incubated at 37° C. overnight.
(§6) Two types of control conditions were used: irradiation in the absence of photosensitizers and incubation with photosensitizers in the dark.

B. cereus spores = experiment: Photodynamic inactivation (PDI) of B. cereus spores, colony-forming units; type: cell-based, B. cereus (ATCC14579); settings: for photodynamic killing of spores: 100 mW/cm^2 appropriate wavelength light, 0 to 32 J/cm^2 (FIG. 5, FIG. 8)
Description: as §1, §2, §3, §4, §5, §6

[1] = test system: B. subtilis vegetative cells; experiment: Photoinactivation of B. subtilis vegetative cells; type: cell-based, B. subtilis (ATCC 6051); settings: 10(7)/mL, 3 hours at 37° C., 100 mW/cm^2 635-nm light (FIG. 13)
Description: as §1
as §5, with “overnight. […]” for “overnight.”

B. subtilis spores = experiment: Photodynamic inactivation (PDI) of B. subtilis spores, colony-forming units; type: cell-based, B. subtilis (ATCC 6051); settings: needs ten times the dye and six times the light of B. cereus and B. thuringiensis; 100 mW/cm^2 635-nm light (FIG. 3)
Description: as §1
as §2, with “Lysozyme was removed by centrifuging 8 times (at 1300 g) and washing with sterile deionized water. Spores were frozen with 10% glycerol and stored until use. To avoid germination spores were used immediately after defrosting.” left out

[2] = test system: B. cereus vegetative cells; experiment: Photoinactivation of B. cereus vegetative cells; type: cell-based, B. cereus (ATCC14579); settings: 10(7)/mL, 3 hours at 37° C., 100 mW/cm^2 635-nm light (FIG. 13)
Description: as §1
as §5, with “overnight. […]” for “overnight.”

Compound | photodynamic killing of spores (B. thuringiensis spores) | photodynamic killing of spores (B. cereus spores; 100 μM, 1 hour) | also measured
CNc1ccc2nc3ccc(N)cc3[s+]c2c1.[Cl-] [Azure C] | effective | effective | rank of potency among the dyes of FIG. 5 (B. cereus spores; 100 μM, 1 hour, 100 mW/cm^2 (FIG. 5)): most potent
New Methylene Blue N zinc chloride double salt [NMB] | effective | effective | 
Cc1cc2nc3ccc(N(C)C)cc3[s+]c2cc1N.[Cl-] [TBO, Toluidine Blue O] | effective |  | killing of spores as a function of concentration and light fluence (B. cereus spores; 10 μM, 100 μM or 1 mM, 10 minutes, 100 mW/cm^2 635-nm light (FIG. 2)): improved, depending on both TBO concentration and light fluence; most effective incubation period (B. cereus spores; 50 μM TBO (FIG. 6)): ≥ 3 h; effect of incubation time on effectiveness of killing (B. cereus spores; 50 μM TBO, 1 minute to 24 hours incubation (FIG. 6)): effectiveness of killing increases with increasing incubation time; spores killed (B. cereus spores; 100 μM, 10 minutes incubation, 100 mW/cm^2 635-nm light (FIG. 1)): greater than 99.9%; killing of spores at the first lowest light dose tested (B. cereus spores; 1 mM dose, 10 minutes, 100 mW/cm^2 635-nm light (FIG. 2)): complete killing; dark toxicity to spores (B. cereus spores; 1 mM dose, 10 minutes, no light (FIG. 2)): significant dark toxicity; sensitivity of vegetative cells to PDI [1]: sensitive to PDI; killing of spores (B. subtilis spores): more than 99.9%; sensitivity of vegetative cells to PDI [2]: sensitive to PDI
CN(C)c1ccc2nc3ccc(N)cc3[s+]c2c1.[Cl-] [Azure A] | effective | effective | 
Cc1cc2nc3cc(C)c(N)cc3[n+](-c3ccccc3)c2cc1N.[Cl-] [safranin O, safranine O] |  | effective | 
CNc1ccc2nc3ccc(=[N+](C)C)cc-3sc2c1.[Cl-] [Azure B] | effective | effective | 
CN(C)c1ccc(C(=C2C=CC(=[N+](C)C)C=C2)c2ccccc2)cc1 [malachite green] |  | effective | 
CN(C)c1ccc2nc3ccc(=[N+](C)C)cc-3sc2c1 [methylene blue, Methylene Blue] |  | effective | 
Cc1cc(N(C)C)cc2[s+]c3cc(N(C)C)cc(C)c3nc12.[Cl-] [DMMB, 1,9-Dimethylmethylene Blue Chloride] | effective |  | effect of incubation time on effectiveness of killing (B. cereus spores; 50 μM DMMB, 1 minute to 24 hours incubation, 670 nm light (FIG. 7)): effectiveness of killing increases with increasing incubation time; killing of spores in PDI (B. cereus spores; DMMB, 670 nm light (FIG. 7)): effective
CCN(CC)c1ccc2nc3ccc(N)cc3[n+](-c3ccccc3)c2c1.[Cl-] [methylene violet 3RAX] |  | effective | 
